Earlier results in US7332498B2, “Modulation of KSP kinesin activity with heterocyclic-fused pyrimidinone derivatives” (Cytokinetics, Inc., priority 2002, dated 2008).

System: A549 cells
Conditions: data provided by National Cancer Institute, Developmental Therapeutic Program

Compound | GI50 [nM]
NC(=O)NO [hydroxyurea] | 500000
O=c1[nH]cc(F)c(=O)[nH]1 [5-fluorouracil] | 1000
CC(=O)O[C@H]1C(=O)[C@@]2(C)[C@H]([C@H](OC(=O)c3ccccc3)[C@]3(O)C[C@H](OC(=O)[C@H](O)[C@@H](NC(=O)c4ccccc4)c4ccccc4)C(C)=C1C3(C)C)[C@]1(OC(C)=O)CO[C@@H]1C[C@@H]2O [paclitaxel] | 4
COc1cccc2c1C(=O)c1c(O)c3c(c(O)c1C2=O)C[C@@](O)(C(=O)CO)C[C@@H]3O[C@H]1C[C@H](N)[C@H](O)[C@H](C)O1 [doxorubicin] | 63
